The source of these data is patent publication US7119105B2, “Methods for treating neurodegenerative disorders using aspartyl protease inhibitors” (The Regents of the University of California, priority 1997, dated 2006).

What all share (assay type): cell-based, rat
One assay has as its system 29 kDa APP fragment. The experiment in a line: APP fragment in entorhinohippocampal slice cultures (immunoblot, anti-C APP643-695). The following applies: six days; ZPAD 20 μM, CEL5-172 10 μM; vs control. How it is done: Organotypic entorhinohippocampal cultures were prepared using the technique of Stoppini, et al., J. Neurosci. Methods, 37, 173–182 (1991). Briefly, the caudal pole of the cerebral hemisphere containing the entorhinal cortex and hippocampus were harvested from brains of 6–7 days old Sprague-Dawley rat pups under sterile condition. 400 μm horizontal entorhinohippocampal sections cut vertical to the long axes of hippocampus were obtained using a McIlwain tissue chopper in a cutting medium consisting of MEM (with Earle's salts, Gibco), 25 mM HEPES, 10 mM Tris Base, 10 mM Glucose, and 3 mM MgCl2 (pH 7.2). […]
For western blot, entorhinohippocampal explants were collected and sonicated in 10 mM Tris-HCl buffer (pH 7.4) containing 0.32 M sucrose, 2 mM EDTA, 2 mM EGTA, and 0.1 mM leupeptin. […] Immunoblots were scanned, and the digitized images were quantitatively analyzed by densitometry using the NIH Image analysis system program. […]

In assay [1] the test system is phosphorylated tau fragment. The experiment in a line: Phosphorylated tau fragments in entorhinohippocampal slice cultures (immunoblot). The following applies: six days; ZPAD 20 μM, CEL5-172 10 μM, EA-1 1 μM; vs control.
Protocol: Briefly, the caudal pole of the cerebral hemisphere containing the entorhinal cortex and hippocampus were harvested from brains of 6–7 days old Sprague-Dawley rat pups under sterile condition. 400 μm horizontal entorhinohippocampal sections cut vertical to the long axes of hippocampus were obtained using a McIlwain tissue chopper in a cutting medium consisting of MEM (with Earle's salts, Gibco), 25 mM HEPES, 10 mM Tris Base, 10 mM Glucose, and 3 mM MgCl2 (pH 7.2). Brain tissue explants were then planted onto 30 mm cell culture inserts (Illicell-CM, Millipore, Bedford, Mass.) that were placed in 6 well culture trays with 1 mL of growth medium (MEM with Hank's salts, Gibco, 20% horse serum, 3 mM glutamine, 25 mM HEPES, 5 mM NaHCO3, 25 mM glucose, 0.5 mM ascorbate, 2 mM CaCl2, 2.5 mM MgCl2, 0.5 mg/L insulin, and penicillin, pH 7.2; Bi, et al., J. Comp. Neuro., 401, 382–394 (1998). The cultures were incubated at 35° C. with a 5% CO2-enriched atmosphere and fed every other day until use.
Assay [2] deals with hyperphosphorylated tau fragments (tau 29). The experiment in a line: Hyperphosphorylated tau fragments (tau 29) in hippocampal slice cultures, AT8 Western blot. How it is done: (§1) Organotypic hippocampal cultures were prepared using the technique of Stoppini, et al. (J. Neurosci. Meth., 37:173–182 (1991)). Briefly, hippocampi were harvested from brains of 9–11 days old Sprague-Dawley rat pups under sterile condition. Horizontal sections vertical to the long axis of hippocampus were cut at 400 μm and collected in a cutting medium consisting of MEM (with Earle's salts, Gibco), 25 mM HEPES, 10 mM Tris Base, 10 mM Glucose, and 3 mM MgCl2 (pH 7.2). Slices were positioned onto 30 mm cell culture inserts (Millicell-CM, Millipore, Bedford, Mass.) that were placed in 6 well culture trays with 1 ml of growth medium (MEM with Hank's salts, Gibco, 20% horse serum, 3 mM glutamine, 25 mM HEPES, 5 mM NaHCO3, 25 mM glucose, 0.5 mM ascorbate, 2 mM CaCl2, 2.5 mM MgCl2, 0.5 mg/l insulin, and penicillin, pH 7.2; 9). The cultures were incubated at 35° C. with a 5% CO2-enriched atmosphere with medium changed every other day until use. Incubations were carried out for 14 days before the start of experiments. This period is sufficient for the slices to take on a variety of adult characteristics (Bahr, J Neurosci Res., 42:294–305 (1995); and Muller, et al., Dev. Brain Res., 71:93–100 (1993)).
Experiments were carried out using a yoked design in which one of the six culture trays was always used as a control and values for experimentally treated slices were expressed as percents of the same plate control. Hippocampal slice cultures were exposed to medium containing one of three cathepsin D inhibitors (see, below) or to ‘ZPAD’ (N-CBZ-L-phenylalanyl-L-alanine-diazomethylketone), a selective inhibitor of cathepsins B and L (Green, et al., J. Biol. Chem., 256:1923–1928 (1981); Richardson, et al., J. Cell Biol., 107:2097–2107 (1988); and Shaw, et al., Biochem. J., 186:385–390 (1980)). […]
(§2) Hippocampal slices were collected and sonicated in 10 mM Tris-HCl buffer (pH 7.4) containing 0.32 M sucrose, 2 mM EDTA, 2 mM EGTA, and 0.1 mM leupeptin. […] Immunoblots were scanned and the digitized images were quantitatively analyzed by densitometry using the NIH Image analysis system program.

The test system of another assay is cathepsin D isoforms. The experiment in a line: Cathepsin D isoforms in hippocampal slice cultures, Western blot. The note with it: ZPAD alone. How it is done:
as §1, with “The cultures were incubated at 35° C. with a 5% CO2-enriched atmosphere with medium changed every other day until use. Incubations were carried out for 14 days before the start of experiments. This period is sufficient for the slices to take on a variety of adult characteristics (Bahr, J Neurosci Res., 42:294–305 (1995); and Muller, et al., Dev. Brain Res., 71:93–100 (1993)).” left out
(§3) Experiments were carried out using a yoked design in which one of the six culture trays was always used as a control and values for experimentally treated slices were expressed as percents of the same plate control. […]
as §2

Assay [3] relates to native (unphosphorylated) tau. The experiment in a line: Native tau isoforms and 29 kDa fragment in hippocampal slice cultures, tau 1 Western blot. The following applies: ZPAD six-day treatment, tau 1 antibody. How it is done: as §1, with “The cultures were incubated at 35° C. with a 5% CO2-enriched atmosphere with medium changed every other day until use. Incubations were carried out for 14 days before the start of experiments. This period is sufficient for the slices to take on a variety of adult characteristics (Bahr, J Neurosci Res., 42:294–305 (1995); and Muller, et al., Dev. Brain Res., 71:93–100 (1993)).” left out
as §3, §2

“N-CBZ-L-phenylalanyl-L-alanine-diazomethylketone [ZPAD]”: the “concentration of 29 kDa APP fragment, inhibitor by itself” value with 29 kDa APP fragment is “increases”. Besides, in assay [1], the “concentration of phosphorylated tau fragment, inhibitor by itself” value is “increases”. The “effect on tau 29 concentration, inhibitor by itself” value in assay [2] (2-6 days, CEL5 5 μM, EA-1 at concentrations tested, ZPAD 20 μM) is “increased”. Further, the “increase in the hyperphosphorylated tau fragment (mean±s.e.m.)” value in assay [2] (ZPAD 20 μM by itself, 6 days, vs yoked control, 5 experiments) was 104±18%. Moreover, the “time at which ZPAD induced increases in phosphorylated tau fragment appeared” value in assay [2] (earliest time point tested) stood at 48 h. Besides, the “increase in heavy chain isoform of cathepsin D” value in the assay on cathepsin D isoforms was 70%. Further, the “effect on procathepsin D” value with cathepsin D isoforms (6 days) is recorded as “modest increases”. Moreover, in assay [3], the “increase in 29 kDa fragments” value was found to be 101%. Further, in assay [3] (n=8), the “reduction of native tau concentrations (four isoforms) from yoked controls” value was 19–32%.
